Results on 24 molecules are retold here after patent publication US12679804B2, “2-(3-ethynylbenzyl)-substituted heterocycle derivatives and related uses” (CENTESSA PHARMACEUTICALS (UK) LIMITED, priority 2021, dated 2026).

Where no end group is shown, it is not given here.

Experiment [1] addresses T1, human orexin type 2 receptor (hOX2R) (Homo sapiens, UniProt O43614).
T1 construct: expressed in transfected cells
T1 sequence (O43614 1-444): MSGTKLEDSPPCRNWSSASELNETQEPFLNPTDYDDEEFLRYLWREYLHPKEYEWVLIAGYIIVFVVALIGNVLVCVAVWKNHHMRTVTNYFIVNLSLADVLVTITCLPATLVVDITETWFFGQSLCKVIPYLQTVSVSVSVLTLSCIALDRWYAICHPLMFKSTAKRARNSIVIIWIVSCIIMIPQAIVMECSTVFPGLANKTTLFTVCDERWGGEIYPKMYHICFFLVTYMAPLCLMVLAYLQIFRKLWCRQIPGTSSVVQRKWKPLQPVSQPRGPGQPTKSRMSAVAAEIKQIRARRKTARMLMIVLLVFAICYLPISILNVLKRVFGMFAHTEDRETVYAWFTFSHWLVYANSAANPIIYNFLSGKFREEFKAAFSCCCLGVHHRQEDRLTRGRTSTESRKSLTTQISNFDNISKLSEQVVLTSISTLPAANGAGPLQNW
In words: Orexin type 2 receptor agonist activity (FLIPR TETRA intracellular Ca2+ fluorescence). Conditions: for EC50: CHO cells expressing hOX2R, area of Ca2+ fluorescence over 2 min, read-out: hOx2 pEC50 (converted); for Emax at 10 µM: value at 10 μM, dilution buffer = 0%, 10 nM human orexin A = 100%, read-out: hOx2 Emax. It counts as cell-based. The method, then: Stable cell line generation. Obtainment of cells stably expressing either human orexin type 2 or human orexin type 1 receptor: to obtain a stable cell line the Orexin receptor cDNA was inserted into pcDNA3.1(+) plasmid vector and clones identified by G418 drug resistance selection. […] A single clone for OX2R-CHO and OX1R-CHO were grown in bulk and frozen to generate a cell bank for routine screening.
Measurement of orexin type 2 receptor agonist activity. Chinese hamster ovary (CHO) cells expressing human orexin type 2 receptor (hOX2R) or human orexin […] were seeded in each well of 384 well black clear bottom plates (BD Flacon) at 10,000 cells per well and cultured for 24 hr in an Ham's F12 (Gibco) medium containing 10% fetal calf serum (Sigma Aldrich) under the conditions of 37° C., 5% CO2. After removal of the medium, 50 μl of assay buffer 1 (0.1% bovine serum albumin (Sigma Aldrich), 20 mM HEPES (Molecular Dimensions), […] (Sigma Aldrich), 1× Calcium 5 dye (Molecular Devices) in Hank's balanced salt solution (Invitrogen)) was added, and the cells were incubated for 60 min under the conditions of 37° C., 5% CO2. A test compound was dissolved in dimethyl sulfoxide (Sigma Aldrich) to 10 mM, and then diluted with assay buffer 2 (20 mM HEPES, Hank's balanced salt solution, 0.1% bovine serum albumin). For the reaction, a test compound solution (10 μl) was added using Fluorescent Imaging Plate Reader TETRA (FLIPR TETRA: manufactured by Molecular Devices), a fluorescence value (excitation wavelength 488 nm, measurement wavelength 570 nm) of each well was measured every one second for 2 min, and the agonist activity was determined using the area of the fluorescence value as an indicator of intracellular Ca^2+ concentration. The agonist activity of the test compound was calculated assuming that the fluorescence value of the well added with only the dilution buffer was 0% and the fluorescence value of the well added with 10 nM human orexin A (Tocris) buffer was 100%. As used herein, Emax indicates the value at 10 μM concentration when orexin A is converted to a full agonist (maximum value of agonist activity: 100%).

A further experiment concerns mice. As to conditions: cited from earlier work.
Setting [2] is: ICV, 3 nmol, orexin-neuron ablated mice.

A word on the Emax: it is the greatest response seen or fitted, relative to the assay's reference.

On to `CCS(=O)(=O)NC1CCN(C(=O)C(C)C)C1Cc1cccc(C#CC2(C)COC2)c1` (racemic) [Compound 1-9, N-(1-isobutyryl-2-(3-((3-methyloxetan-3-yl)ethynyl)benzyl)pyrrolidin-3-yl)ethane-sulfonamide], for which, in experiment [1], the EC50 was above 100 nM and the Emax at 10 µM is at least 90%. As to `CCS(=O)(=O)NC1CCN(C(=O)C2CCC2)C1Cc1cccc(C#CC2CC2)c1F` (racemic) [Compound 1-19, N-(1-(cyclobutanecarbonyl)-2-(3-(cyclopropylethynyl)-2-fluorobenzyl)pyrrolidin-3-yl)ethanesulfonamide], in experiment [1], the maximal response (Emax) at 10 µM is at least 90%.

With `CC1(C#Cc2cccc(C[C@H]3[C@@H](NS(C)(=O)=O)CCCN3C(=O)[C@H]3CCO3)c2F)CC1` (single isomer, unassigned) [Compound 1-5], the Emax at 10 µM in experiment [1] is at least 90%.

On to `COC(=O)N1CCC[C@H](NS(C)(=O)=O)[C@@H]1CO[C@H]1CC[C@@H](c2ccccc2)CC1` [TAK-925], for which the wakefulness entry in the experiment on mice (subcutaneous, WT mice) is listed as “modestly increases wakefulness”. On to `CC1(C#Cc2cccc(C[C@H]3[C@@H](NS(C)(=O)=O)CCN3C(=O)[C@H]3CCO3)c2F)CC1` [Compound 1-1, N-((2S,3S)-2-(2-fluoro-3-((1-methylcyclopropyl)ethynyl)benzyl)-1-((R)-oxetane-2-carbonyl)pyrrolidin-3-yl)methanesulfonamide], for which the Emax at 10 µM in experiment [1] is at least 90%. Take `CC1(C#Cc2cccc(C[C@H]3[C@@H](NS(C)(=O)=O)CCN3C(=O)N3CCC3)c2F)CC1` [Compound 1-8, N-((2S,3S)-1-(azetidine-1-carbonyl)-2-(2-fluoro-3-((1-methylcyclopropyl)-ethynyl)benzyl)pyrrolidin-3-yl)methanesulfonamide]: in experiment [1], the EC50 was 1 to 10 nM and the maximum response (Emax) at 10 µM was at least 90%. For the molecule `CCS(=O)(=O)NC1CCN(C(=O)C(C)C)C1Cc1cccc(C#CC2CC2)c1` (racemic) [Compound 1-14, N-(2-(3-(cyclopropylethynyl)benzyl)-1-isobutyrylpyrrolidin-3-yl) ethanesulfonamide], in experiment [1], the EC50 is above 100 nM and the Emax at 10 µM was at least 90%. With `CCNC(=O)N1CC[C@H](NS(C)(=O)=O)[C@@H]1Cc1cccc(C#CC2(C)CC2)c1F` [Compound 1-6, (2S,3S)—N-ethyl-2-(2-fluoro-3-((1-methylcyclopropyl)ethynyl)benzyl)-3-(methylsulfonamido)pyrrolidine-1-carboxamide], the Emax at 10 µM in experiment [1] was at least 90%. `CCS(=O)(=O)NC1CCN(C(=O)C(C)C)C1Cc1cccc(C#CC2CCCC2)c1` (racemic) [Compound 1-13, N-(2-(3-(cyclopentylethynyl)benzyl)-1-isobutyrylpyrrolidin-3-yl)ethanesulfonamide]: in experiment [1], the EC50 was above 100 nM and the maximal response (Emax) at 10 µM is at least 90%. For `CCS(=O)(=O)NC1CCN(C(=O)C(C)C)C1Cc1cccc(C#CCOC)c1F` (racemic) [Compound 1-11, N-(2-(2-fluoro-3-(3-methoxyprop-1-yn-1-yl)benzyl)-1-isobutyrylpyrrolidin-3-yl)ethanesulfonamide], in experiment [1], the EC50 is above 100 nM and the Emax at 10 µM fell in the range of 70 to 80%. For `CCS(=O)(=O)NC1CCN(C(=O)C(C)C)C1Cc1cccc(C#CC2COC2)c1` (racemic) [Compound 1-10, N-(1-isobutyryl-2-(3-(oxetan-3-ylethynyl)benzyl)pyrrolidin-3-yl)ethanesulfonamide], in experiment [1], the EC50 is above 100 nM and the maximum response (Emax) at 10 µM was in the range of 70 to 80%. On the same counts, the results for `CCS(=O)(=O)N[C@H]1CCN(C(=O)N2CCC2)[C@H]1Cc1cccc(C#CC2CC2)c1F` (single isomer, unassigned) [Compound 1-16] are 1 to 10 nM and at least 90%.

In the case of `CCS(=O)(=O)NC1CCN(C(=O)C(C)C)C1Cc1cccc(C#CC2CC2)c1F` (racemic) [Compound 1-20, N-(2-(3-(cyclopropylethynyl)-2-fluorobenzyl)-1-isobutyrylpyrrolidin-3-yl)ethanesulfonamide], in experiment [1], the Emax at 10 µM is at least 90%. Consider `CCS(=O)(=O)NC1CCN(C(=O)N2CCC2)C1Cc1cccc(C#CC2CC2)n1` (racemic) [Compound 1-17, N-(1-(azetidine-1-carbonyl)-2-((6-(cyclopropylethynyl)pyridin-2-yl)methyl)pyrrolidin-3-yl)ethanesulfonamide], for which, in experiment [1], the EC50 is above 100 nM and the maximal response (Emax) at 10 µM was 80 to 90%. For `CCS(=O)(=O)N[C@@H]1CCN(C(=O)N2CCC2)[C@@H]1Cc1cccc(C#CC2CC2)c1F` (single isomer, unassigned) [Compound 1-15], in experiment [1], the EC50 is above 100 nM and the maximal response (Emax) at 10 µM fell in the range of 70 to 80%. Consider `CS(=O)(=O)N[C@H]1CCN(C(=O)N2CCC2)[C@H]1Cc1cccc(C#CC2CCC2)c1F` [Compound 1-7, N-((2S,3S)-1-(azetidine-1-carbonyl)-2-(3-(cyclobutylethynyl)-2-fluorobenzyl)-pyrrolidin-3-yl)methanesulfonamide], for which the maximal response (Emax) at 10 µM in experiment [1] is at least 90%. “orexin A: orexin peptide cleaved from prepro-orexin; 10 nM human orexin A (Tocris) defines 100% agonist activity (QPLPDCCRQKTCSCRLYELLHGAGNHAAGILTL; ends and bridges not checked; cysteine pairing not given here; UniProt O43612 34-66, looked up)”: in the experiment on mice (setting [2]), the cataplexy-like behavior entry was “decreases cataplexy-like behavior” and the time spent awake result is recorded as “increase time spent awake”. As for `CC1(C#Cc2cccc(C[C@H]3[C@@H](NS(C)(=O)=O)CCN3C(=O)[C@H]3CCO3)c2)CC1` [Compound 1-3, N-((2S,3S)-2-(3-((1-methylcyclopropyl)ethynyl)benzyl)-1-((R)-oxetane-2-carbonyl)pyrrolidin-3-yl)methanesulfonamide], the Emax at 10 µM in experiment [1] was at least 90%. `CCS(=O)(=O)NC1CCN(C(=O)N2CCC2)C1Cc1cccc(C#CC2CC2)c1F` (racemic) [Compound 1-18, N-(1-(azetidine-1-carbonyl)-2-(3-(cyclopropylethynyl)-2-fluorobenzyl)pyrrolidin-3-yl)ethanesulfonamide]: the maximum response (Emax) at 10 µM in experiment [1] is at least 90%. On to `CCS(=O)(=O)NC1CCN(C(=O)C(C)(C)O)C1Cc1cccc(C#Cc2ccccc2)c1` (racemic) [Compound 1-22, N-(1-(2-hydroxy-2-methylpropanoyl)-2-(3-(phenylethynyl)benzyl)-pyrrolidin-3-yl)ethanesulfonamide], for which, in experiment [1], the EC50 is above 100 nM and the Emax at 10 µM was at least 90%. With `CC1(C#Cc2cccc(C[C@@H]3[C@H](NS(C)(=O)=O)CCCN3C(=O)[C@H]3CCO3)c2F)CC1` (single isomer, unassigned) [Compound 1-4], in experiment [1], the EC50 was above 100 nM and the Emax at 10 µM is 60 to 70%. As for `CS(=O)(=O)N[C@H]1CCN(C(=O)[C@H]2CCO2)[C@H]1Cc1cccc(C#CC2(C(F)(F)F)CC2)c1F` [Compound 1-2, N-((2S,3S)-2-(2-fluoro-3-((1-(trifluoromethyl)cyclopropyl)ethynyl)benzyl)-1-((R)-oxetane-2-carbonyl)pyrrolidin-3-yl)methanesulfonamide], the maximal response (Emax) at 10 µM in experiment [1] is at least 90%. Consider `CCS(=O)(=O)NC1CCN(C(=O)C(C)(C)O)C1Cc1cccc(C#CC2CC2)c1` (racemic) [Compound 1-21, N-(2-(3-(cyclopropylethynyl)benzyl)-1-(2-hydroxy-2-methylpropanoyl)pyrrolidin-3-yl)ethanesulfonamide], for which, in experiment [1], the EC50 is above 100 nM and the Emax at 10 µM lay in the range of 80 to 90%. For `CCS(=O)(=O)NC1CCN(C(=O)C(C)C)C1Cc1cccc(C#CC(C)(C)C)c1` (racemic) [Compound 1-12, N-(2-(3-(3,3-dimethylbut-1-yn-1-yl)benzyl)-1-isobutyrylpyrrolidin-3-yl) ethane-sulfonamide], in that order: above 100 nM and at least 90%.
